Measured values taken from the CheMixHub viscosity set.
± gives the uncertainty stated by the source.

Experiment: xn = mol fraction of the nth substance listed

For `CCCOC(=O)c1ccccc1` + CC#N, the viscosity (293.15 K, 101.33 kPa, x1 = 0.127) was 0.439 ± 0.005 mPa·s, the viscosity (293.15 K, 101.33 kPa, x1 = 0.247) was 0.48 ± 0.005 mPa·s and the viscosity (293.15 K, 101.33 kPa, x1 = 0.362) was 0.544 ± 0.005 mPa·s. The viscosity (293.15 K, 101.33 kPa, x1 = 0.467) was 0.614 ± 0.006 mPa·s, the viscosity (293.15 K, 101.33 kPa, x1 = 0.567) was 0.755 ± 0.006 mPa·s and the viscosity (293.15 K, 101.33 kPa, x1 = 0.658) was 0.879 ± 0.007 mPa·s. It also gave a viscosity (293.15 K, 101.33 kPa, x1 = 0.748) of 1.113 ± 0.008 mPa·s, a viscosity (293.15 K, 101.33 kPa, x1 = 0.842) of 1.522 ± 0.009 mPa·s and a viscosity (293.15 K, 101.33 kPa, x1 = 0.928) of 2.048 ± 0.012 mPa·s. For the same molecule, the viscosity (303.15 K, 101.33 kPa, x1 = 0.127) was 0.397 ± 0.005 mPa·s, the viscosity (303.15 K, 101.33 kPa, x1 = 0.247) was 0.43 ± 0.005 mPa·s and the viscosity (303.15 K, 101.33 kPa, x1 = 0.362) was 0.484 ± 0.005 mPa·s. It also gave a viscosity (303.15 K, 101.33 kPa, x1 = 0.467) of 0.54 ± 0.005 mPa·s, a viscosity (303.15 K, 101.33 kPa, x1 = 0.567) of 0.654 ± 0.006 mPa·s and a viscosity (303.15 K, 101.33 kPa, x1 = 0.658) of 0.749 ± 0.006 mPa·s. It also gave a viscosity (303.15 K, 101.33 kPa, x1 = 0.748) of 0.929 ± 0.007 mPa·s, a viscosity (303.15 K, 101.33 kPa, x1 = 0.842) of 1.237 ± 0.008 mPa·s and a viscosity (303.15 K, 101.33 kPa, x1 = 0.928) of 1.609 ± 0.01 mPa·s. The viscosity (313.15 K, 101.33 kPa, x1 = 0.127) was 0.362 ± 0.005 mPa·s, the viscosity (313.15 K, 101.33 kPa, x1 = 0.247) was 0.386 ± 0.005 mPa·s and the viscosity (313.15 K, 101.33 kPa, x1 = 0.362) was 0.431 ± 0.005 mPa·s. For the same molecule, the viscosity (313.15 K, 101.33 kPa, x1 = 0.467) was 0.479 ± 0.005 mPa·s, the viscosity (313.15 K, 101.33 kPa, x1 = 0.567) was 0.57 ± 0.005 mPa·s and the viscosity (313.15 K, 101.33 kPa, x1 = 0.658) was 0.652 ± 0.006 mPa·s. The viscosity (313.15 K, 101.33 kPa, x1 = 0.748) was 0.786 ± 0.006 mPa·s, the viscosity (313.15 K, 101.33 kPa, x1 = 0.842) was 1.025 ± 0.007 mPa·s and the viscosity (313.15 K, 101.33 kPa, x1 = 0.928) was 1.307 ± 0.008 mPa·s. The viscosity (323.15 K, 101.33 kPa, x1 = 0.127) was 0.326 ± 0.005 mPa·s, the viscosity (323.15 K, 101.33 kPa, x1 = 0.247) was 0.346 ± 0.005 mPa·s and the viscosity (323.15 K, 101.33 kPa, x1 = 0.362) was 0.386 ± 0.005 mPa·s. For the same molecule, the viscosity (323.15 K, 101.33 kPa, x1 = 0.467) was 0.424 ± 0.005 mPa·s, the viscosity (323.15 K, 101.33 kPa, x1 = 0.567) was 0.499 ± 0.005 mPa·s and the viscosity (323.15 K, 101.33 kPa, x1 = 0.658) was 0.564 ± 0.005 mPa·s. For the same molecule, the viscosity (323.15 K, 101.33 kPa, x1 = 0.748) was 0.67 ± 0.006 mPa·s, the viscosity (323.15 K, 101.33 kPa, x1 = 0.842) was 0.853 ± 0.006 mPa·s and the viscosity (323.15 K, 101.33 kPa, x1 = 0.928) was 1.075 ± 0.007 mPa·s.
With `CC(C)c1ccccc1` + c1ccccc1 the viscosity (293.15 K, 101.33 kPa, x2 = 0.3728) was 0.721 ± 0.013 mPa·s, the viscosity (293.15 K, 101.33 kPa, x2 = 0.5889) was 0.693 ± 0.0096 mPa·s and the viscosity (293.15 K, 101.33 kPa, x2 = 0.8176) was 0.66 ± 0.0068 mPa·s. It also gave a viscosity (293.15 K, 101.33 kPa, x2 = 0.9057) of 0.653 ± 0.0062 mPa·s, a viscosity (303.15 K, 101.3 kPa, x2 = 0.1245) of 0.6683 ± 0.0056 mPa·s and a viscosity (303.15 K, 101.3 kPa, x2 = 0.2644) of 0.6483 ± 0.0055 mPa·s. The viscosity (303.15 K, 101.3 kPa, x2 = 0.4246) was 0.6265 ± 0.0054 mPa·s, the viscosity (303.15 K, 101.3 kPa, x2 = 0.5391) was 0.6111 ± 0.0053 mPa·s and the viscosity (303.15 K, 101.3 kPa, x2 = 0.5606) was 0.6069 ± 0.0052 mPa·s. For the same molecule, the viscosity (303.15 K, 101.3 kPa, x2 = 0.6382) was 0.5972 ± 0.0052 mPa·s, the viscosity (303.15 K, 101.3 kPa, x2 = 0.6478) was 0.5958 ± 0.0052 mPa·s and the viscosity (303.15 K, 101.3 kPa, x2 = 0.7409) was 0.5819 ± 0.0051 mPa·s. It also gave a viscosity (303.15 K, 101.3 kPa, x2 = 0.831) of 0.5721 ± 0.005 mPa·s, a viscosity (303.15 K, 101.3 kPa, x2 = 0.919) of 0.5634 ± 0.0049 mPa·s and a viscosity (303.15 K, 101.33 kPa, x2 = 0.3728) of 0.63 ± 0.011 mPa·s. The viscosity (303.15 K, 101.33 kPa, x2 = 0.5889) was 0.607 ± 0.0084 mPa·s, the viscosity (303.15 K, 101.33 kPa, x2 = 0.8176) was 0.575 ± 0.006 mPa·s and the viscosity (303.15 K, 101.33 kPa, x2 = 0.9057) was 0.563 ± 0.0054 mPa·s. The viscosity (313.15 K, 101.33 kPa, x2 = 0.3728) was 0.56 ± 0.01 mPa·s, the viscosity (313.15 K, 101.33 kPa, x2 = 0.5889) was 0.537 ± 0.0075 mPa·s and the viscosity (313.15 K, 101.33 kPa, x2 = 0.8176) was 0.512 ± 0.0054 mPa·s. It also gave a viscosity (313.15 K, 101.33 kPa, x2 = 0.9057) of 0.496 ± 0.0048 mPa·s, a viscosity (323.15 K, 101.33 kPa, x2 = 0.3728) of 0.499 ± 0.0092 mPa·s and a viscosity (323.15 K, 101.33 kPa, x2 = 0.5889) of 0.479 ± 0.0068 mPa·s. The viscosity (323.15 K, 101.33 kPa, x2 = 0.8176) was 0.454 ± 0.0049 mPa·s and the viscosity (323.15 K, 101.33 kPa, x2 = 0.9057) was 0.441 ± 0.0044 mPa·s.
`CCCN` + COCCOC gave a viscosity (298.15 K, 101 kPa, x1 = 0.0189) of 0.415 ± 0.007 mPa·s, a viscosity (298.15 K, 101 kPa, x2 = 0.0057) of 0.356 ± 0.007 mPa·s and a viscosity (298.15 K, 101 kPa, x2 = 0.0115) of 0.357 ± 0.007 mPa·s. It also gave a viscosity (298.15 K, 101 kPa, x2 = 0.032) of 0.358 ± 0.007 mPa·s, a viscosity (298.15 K, 101 kPa, x2 = 0.0568) of 0.36 ± 0.007 mPa·s and a viscosity (298.15 K, 101 kPa, x2 = 0.0815) of 0.362 ± 0.007 mPa·s. For the same molecule, the viscosity (298.15 K, 101 kPa, x2 = 0.1075) was 0.364 ± 0.007 mPa·s, the viscosity (298.15 K, 101 kPa, x2 = 0.1552) was 0.368 ± 0.007 mPa·s and the viscosity (298.15 K, 101 kPa, x2 = 0.1871) was 0.369 ± 0.007 mPa·s. The viscosity (298.15 K, 101 kPa, x2 = 0.2467) was 0.372 ± 0.007 mPa·s, the viscosity (298.15 K, 101 kPa, x2 = 0.2882) was 0.373 ± 0.007 mPa·s and the viscosity (298.15 K, 101 kPa, x2 = 0.3386) was 0.374 ± 0.007 mPa·s. For the same molecule, the viscosity (298.15 K, 101 kPa, x2 = 0.3526) was 0.374 ± 0.007 mPa·s, the viscosity (298.15 K, 101 kPa, x2 = 0.3761) was 0.374 ± 0.007 mPa·s and the viscosity (298.15 K, 101 kPa, x2 = 0.4134) was 0.375 ± 0.007 mPa·s. For the same molecule, the viscosity (298.15 K, 101 kPa, x2 = 0.4707) was 0.378 ± 0.007 mPa·s, the viscosity (298.15 K, 101 kPa, x2 = 0.5131) was 0.38 ± 0.007 mPa·s and the viscosity (298.15 K, 101 kPa, x2 = 0.5662) was 0.381 ± 0.007 mPa·s. It also gave a viscosity (298.15 K, 101 kPa, x2 = 0.6099) of 0.383 ± 0.007 mPa·s, a viscosity (298.15 K, 101 kPa, x2 = 0.6466) of 0.386 ± 0.007 mPa·s and a viscosity (298.15 K, 101 kPa, x2 = 0.7017) of 0.39 ± 0.007 mPa·s. It also gave a viscosity (298.15 K, 101 kPa, x2 = 0.74) of 0.392 ± 0.007 mPa·s, a viscosity (298.15 K, 101 kPa, x2 = 0.8022) of 0.397 ± 0.007 mPa·s and a viscosity (298.15 K, 101 kPa, x2 = 0.833) of 0.399 ± 0.007 mPa·s. It also gave a viscosity (298.15 K, 101 kPa, x2 = 0.8785) of 0.403 ± 0.007 mPa·s, a viscosity (298.15 K, 101 kPa, x2 = 0.9167) of 0.408 ± 0.007 mPa·s and a viscosity (298.15 K, 101 kPa, x2 = 0.9436) of 0.411 ± 0.007 mPa·s.
`CCCCOC(C)=O` + Cc1cccc(C)c1 showed a viscosity (298.15 K, 101 kPa, x1 = 0.0468) of 0.583 ± 0.005 mPa·s, a viscosity (298.15 K, 101 kPa, x1 = 0.1506) of 0.587 ± 0.005 mPa·s and a viscosity (298.15 K, 101 kPa, x1 = 0.2497) of 0.592 ± 0.005 mPa·s. For the same molecule, the viscosity (298.15 K, 101 kPa, x1 = 0.3502) was 0.598 ± 0.005 mPa·s, the viscosity (298.15 K, 101 kPa, x1 = 0.4477) was 0.606 ± 0.005 mPa·s and the viscosity (298.15 K, 101 kPa, x1 = 0.4941) was 0.61 ± 0.005 mPa·s. It also gave a viscosity (298.15 K, 101 kPa, x1 = 0.549) of 0.615 ± 0.005 mPa·s, a viscosity (298.15 K, 101 kPa, x1 = 0.6505) of 0.625 ± 0.005 mPa·s and a viscosity (298.15 K, 101 kPa, x1 = 0.7501) of 0.637 ± 0.005 mPa·s. It also gave a viscosity (298.15 K, 101 kPa, x1 = 0.8511) of 0.651 ± 0.005 mPa·s, a viscosity (298.15 K, 101 kPa, x1 = 0.9409) of 0.664 ± 0.005 mPa·s and a viscosity (308.15 K, 101 kPa, x1 = 0.0468) of 0.528 ± 0.005 mPa·s. It also gave a viscosity (308.15 K, 101 kPa, x1 = 0.1506) of 0.531 ± 0.005 mPa·s, a viscosity (308.15 K, 101 kPa, x1 = 0.2497) of 0.535 ± 0.005 mPa·s and a viscosity (308.15 K, 101 kPa, x1 = 0.3502) of 0.539 ± 0.005 mPa·s. It also gave a viscosity (308.15 K, 101 kPa, x1 = 0.4477) of 0.545 ± 0.005 mPa·s, a viscosity (308.15 K, 101 kPa, x1 = 0.4941) of 0.548 ± 0.005 mPa·s and a viscosity (308.15 K, 101 kPa, x1 = 0.549) of 0.551 ± 0.005 mPa·s. The viscosity (308.15 K, 101 kPa, x1 = 0.6505) was 0.559 ± 0.005 mPa·s, the viscosity (308.15 K, 101 kPa, x1 = 0.7501) was 0.568 ± 0.005 mPa·s and the viscosity (308.15 K, 101 kPa, x1 = 0.8511) was 0.577 ± 0.005 mPa·s. For the same molecule, the viscosity (308.15 K, 101 kPa, x1 = 0.9409) was 0.587 ± 0.005 mPa·s.
`ClCCOCCCl` + FB(F)F showed a viscosity (293.15 K, 101 kPa, x2 = 0.0939) of 23.94 ± 0.64 mPa·s, a viscosity (303.15 K, 101 kPa, x2 = 0.0939) of 14.59 ± 0.4 mPa·s and a viscosity (313.15 K, 101 kPa, x2 = 0.0939) of 9.569 ± 0.26 mPa·s. It also gave a viscosity (323.15 K, 101 kPa, x2 = 0.0939) of 6.506 ± 0.18 mPa·s.
